In PubChem BioAssay (NCI):
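Protocol summary: plate cells (96-well), add compound at 5 concentrations, incubate 48 h, interpolate endpoints linearly. At the TGI there is no net growth.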

Key:
Experiment in all cases: DTP human tumour cell line panel, 48 h
[1] = system: SR leukemia
[2] = system: COLO 205 colon
[3] = system: NCI-H460 lung
[4] = system: SNB-75 CNS
[5] = system: CAKI-1 renal
[6] = system: MDA-MB-435
[7] = system: OVCAR-8 ovarian
[8] = system: SK-MEL-2 melanoma
[9] = system: MDA-MB-231 breast
[10] = system: KM12 colon
[11] = system: UACC-257 melanoma
[12] = system: MALME-3M melanoma
[13] = system: RXF 393 renal
[14] = system: MOLT-4 leukemia
[15] = system: 786-0 renal
[16] = system: OVCAR-5 ovarian
[17] = system: A549 NSCLC
[18] = system: NCI-H522 lung
[19] = system: LOX IMVI melanoma
[20] = system: SK-MEL-5 melanoma
[21] = system: MCF7 breast
[22] = system: HT29 colon
[23] = system: U251 CNS
[24] = system: ACHN renal
[25] = system: HOP-92 NSCLC
[26] = system: UACC-62 melanoma
[27] = system: HCC-2998 colon
[28] = system: M14 melanoma
[29] = system: HCT-116 colon
[30] = system: EKVX NSCLC
[31] = system: NCI-H226 lung
[32] = system: TK-10 renal
[33] = system: A498 renal
[34] = system: T-47D breast
[35] = system: SK-OV-3 ovarian
[36] = system: MDA-N
[37] = system: HS 578T breast
[38] = system: OVCAR-3 ovarian
[39] = system: SNB-19 CNS
[40] = system: SF-539 CNS
[41] = system: OVCAR-4 ovarian
[42] = system: SN12C renal
[43] = system: RPMI-8226 leukemia
[44] = system: HL-60(TB) leukemia
[45] = system: SF-268 CNS
[46] = system: DU-145 prostate
[47] = system: SK-MEL-28 melanoma
[48] = system: SF-295 CNS
[49] = system: BT-549 breast
[50] = system: SW-620 colon
[51] = system: PC-3 prostate
[52] = system: HCT-15 colon
[53] = system: NCI/ADR-RES ovarian
[54] = system: K-562 leukemia
[55] = system: IGROV1 ovarian
[56] = system: CCRF-CEM leukemia
[57] = system: UO-31 renal
[58] = system: HOP-62 NSCLC
[59] = system: NCI-H23 lung

SMILES: Cc1ccc(S(=O)(=O)ON2C(=O)c3c(N)c(C#N)c(-c4ccccc4)c(-c4ccccc4)c3C2=O)cc1
- TGI [1]: 35.9 µM
- TGI [2]: 33.1 µM
- TGI [3]: > 100 µM
- TGI [4]: > 100 µM
- TGI [5]: 29.8 µM
- TGI [6]: 22.1 µM
- TGI [7]: 46 µM
- TGI [8]: 54.2 µM
- TGI [9]: 36.4 µM
- TGI [10]: > 100 µM
- TGI [11]: 38 µM
- TGI [12]: 45.8 µM
- TGI [13]: 26.5 µM
- TGI [14]: 38.7 µM
- TGI [15]: 29.8 µM
- TGI [16]: 60 µM
- TGI [17]: 43 µM
- TGI [18]: 33.2 µM
- TGI [19]: 31.1 µM
- TGI [20]: 40.6 µM
- TGI [21]: 37.4 µM
- TGI [22]: 42.2 µM
- TGI [23]: 30.6 µM
- TGI [24]: 31.1 µM
- TGI [25]: 49.4 µM
- TGI [26]: 33.7 µM
- TGI [27]: 89.1 µM
- TGI [28]: 29.5 µM
- TGI [29]: 33.1 µM
- TGI [30]: 29.1 µM
- TGI [31]: 38.7 µM
- TGI [32]: 36.8 µM
- TGI [33]: 44.1 µM
- TGI [34]: 38.1 µM
- TGI [35]: > 100 µM
- TGI [36]: 32.2 µM
- TGI [37]: > 100 µM
- TGI [38]: 27.2 µM
- TGI [39]: > 100 µM
- TGI [40]: 58.2 µM
- TGI [41]: 52.4 µM
- TGI [42]: 40 µM
- TGI [43]: 89.6 µM
- TGI [44]: 11.7 µM
- TGI [45]: > 100 µM
- TGI [46]: 67.1 µM
- TGI [47]: 29.4 µM
- TGI [48]: 92.8 µM
- TGI [49]: 34.8 µM
- TGI [50]: 30.8 µM
- TGI [51]: 32.7 µM
- TGI [52]: 37.6 µM
- TGI [53]: 62.4 µM
- TGI [54]: > 100 µM
- TGI [55]: 30.6 µM
- TGI [56]: 27 µM

SMILES: CCCNCC(O)CNc1ccc(NCC(O)CNCCC)c2c1C(=O)c1ccccc1C2=O (stereo not drawn)
- TGI [1]: 11 µM
- TGI [2]: 7.97 µM
- TGI [3]: 8.48 µM
- TGI [4]: 8.83 µM
- TGI [57]: 31.8 µM
- TGI [5]: 28.7 µM
- TGI [6]: 10.5 µM
- TGI [7]: 8.51 µM
- TGI [8]: 5.22 µM
- TGI [9]: 10.1 µM
- TGI [10]: 17.3 µM
- TGI [58]: 8 µM
- TGI [11]: 17.6 µM
- TGI [12]: 11.3 µM
- TGI [14]: 7.6 µM
- TGI [15]: 8.21 µM
- TGI [16]: 3.99 µM
- TGI [17]: 4.64 µM
- TGI [18]: 7.81 µM
- TGI [19]: 3.62 µM
- TGI [20]: 9.76 µM
- TGI [21]: 7.5 µM
- TGI [22]: 7.69 µM
- TGI [23]: 9.02 µM
- TGI [24]: 18.3 µM
- TGI [25]: 6.81 µM
- TGI [26]: 4.95 µM
- TGI [27]: 3.21 µM
- TGI [28]: 11 µM
- TGI [29]: 8.31 µM
- TGI [30]: 20.1 µM
- TGI [31]: 6.24 µM
- TGI [32]: 22.2 µM
- TGI [33]: 23.5 µM
- TGI [34]: 14.6 µM
- TGI [35]: 7.78 µM
- TGI [36]: 11.7 µM
- TGI [59]: 12.2 µM
- TGI [37]: 16.6 µM
- TGI [38]: 13.7 µM
- TGI [39]: 6.35 µM
- TGI [40]: 5.11 µM
- TGI [41]: 10.6 µM
- TGI [42]: 7.67 µM
- TGI [43]: 6.05 µM
- TGI [44]: 18.9 µM
- TGI [45]: 5.66 µM
- TGI [46]: 20.2 µM
- TGI [47]: 9.69 µM
- TGI [49]: 6.99 µM
- TGI [50]: 7.21 µM
- TGI [51]: 4.7 µM
- TGI [52]: 75 µM
- TGI [53]: > 75 µM
- TGI [54]: 8.21 µM
- TGI [55]: 7.87 µM
- TGI [56]: 4.35 µM
